What all share (format): cell-based
For one assay, the target named is T1, human TLR7 (Homo sapiens, UniProt Q9NYK1).
T1 construct: host or cells: HEK293
T1 sequence (Q9NYK1 27-1049): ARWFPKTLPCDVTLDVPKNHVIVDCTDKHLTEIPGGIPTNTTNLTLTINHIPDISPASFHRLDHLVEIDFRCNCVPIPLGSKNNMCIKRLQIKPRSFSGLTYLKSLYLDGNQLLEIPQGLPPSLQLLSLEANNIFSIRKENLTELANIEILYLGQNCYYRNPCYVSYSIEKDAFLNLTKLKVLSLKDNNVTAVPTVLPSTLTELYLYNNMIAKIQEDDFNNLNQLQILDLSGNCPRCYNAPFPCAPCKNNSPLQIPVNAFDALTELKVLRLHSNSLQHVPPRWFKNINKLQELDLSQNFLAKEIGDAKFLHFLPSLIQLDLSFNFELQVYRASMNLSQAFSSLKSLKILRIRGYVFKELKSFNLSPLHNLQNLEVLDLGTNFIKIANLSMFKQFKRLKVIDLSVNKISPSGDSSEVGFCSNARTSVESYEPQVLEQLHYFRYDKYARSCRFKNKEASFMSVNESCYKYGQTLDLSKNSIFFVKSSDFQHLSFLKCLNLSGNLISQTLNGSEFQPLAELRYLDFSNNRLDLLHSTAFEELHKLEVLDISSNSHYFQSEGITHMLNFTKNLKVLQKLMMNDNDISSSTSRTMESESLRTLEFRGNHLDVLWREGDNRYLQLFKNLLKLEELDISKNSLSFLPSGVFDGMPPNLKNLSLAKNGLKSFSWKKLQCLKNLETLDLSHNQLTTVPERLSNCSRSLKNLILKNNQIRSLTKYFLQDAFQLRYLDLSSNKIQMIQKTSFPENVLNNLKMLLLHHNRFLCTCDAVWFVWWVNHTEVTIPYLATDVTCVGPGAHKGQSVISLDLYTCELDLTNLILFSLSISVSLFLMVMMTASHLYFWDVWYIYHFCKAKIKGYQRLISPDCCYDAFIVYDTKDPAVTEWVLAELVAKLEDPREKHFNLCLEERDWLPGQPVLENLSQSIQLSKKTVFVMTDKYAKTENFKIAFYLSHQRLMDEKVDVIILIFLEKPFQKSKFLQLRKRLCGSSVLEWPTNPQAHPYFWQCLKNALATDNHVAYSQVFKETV
As to the kind of experiment: hTLR7 agonist reporter assay in HEK293 cells (NFκB-SEAP). The following applies: for EC50: read-out: hTLR7 ED50; for hTLR7/8 ratio: hTLR7 ED50 over hTLR8 ED50; for hTLR7 agonist activity, in words: Table 3, FIG. 5. On the procedure:
(§1) Assay for hTLR7 and hTLR8 Agonist Activity in HEK-293 Cells
(§2) Determination of TLR agonist activity was performed using the HEK293 […]. This assay measures TLR7 and TLR8 selectivity and potency of the compounds tested. HEK293 cells expressing human TLR7 or TLR8 and NFκB responsive Secreted Embryonic Alkaline Phosphatase (SEAP) reporter gene were obtained from InvivoGen (San Diego, Calif.). These cells were maintained in culture media of Dulbecco's Modified Eagle Medium (DMEM) (Invitrogen, Grand Island, N.Y.), 10% Fetal Bovine Serum (FBS) (Sigma, St. Louis, Mo.) and selection antibiotics (Invitrogen, and Invivogen). HEK293 stably transfected with human TLR7 (hTLR7) or human TLR8 (hTLR8) were stimulated for 24 h with aqueous formulations of test compounds and culture supernatants were analyzed for NFκB activation using the colorimetric SEAP detection kit QuantBlue (InvivoGen).
For orientation: Reporter assays use an easily measured gene product as a stand-in for the process of interest.

The target in another assay is T2, human TLR8 (Homo sapiens, UniProt Q9NR97).
T2 construct: host or cells: HEK293
T2 sequence (Q9NR97 27-1041): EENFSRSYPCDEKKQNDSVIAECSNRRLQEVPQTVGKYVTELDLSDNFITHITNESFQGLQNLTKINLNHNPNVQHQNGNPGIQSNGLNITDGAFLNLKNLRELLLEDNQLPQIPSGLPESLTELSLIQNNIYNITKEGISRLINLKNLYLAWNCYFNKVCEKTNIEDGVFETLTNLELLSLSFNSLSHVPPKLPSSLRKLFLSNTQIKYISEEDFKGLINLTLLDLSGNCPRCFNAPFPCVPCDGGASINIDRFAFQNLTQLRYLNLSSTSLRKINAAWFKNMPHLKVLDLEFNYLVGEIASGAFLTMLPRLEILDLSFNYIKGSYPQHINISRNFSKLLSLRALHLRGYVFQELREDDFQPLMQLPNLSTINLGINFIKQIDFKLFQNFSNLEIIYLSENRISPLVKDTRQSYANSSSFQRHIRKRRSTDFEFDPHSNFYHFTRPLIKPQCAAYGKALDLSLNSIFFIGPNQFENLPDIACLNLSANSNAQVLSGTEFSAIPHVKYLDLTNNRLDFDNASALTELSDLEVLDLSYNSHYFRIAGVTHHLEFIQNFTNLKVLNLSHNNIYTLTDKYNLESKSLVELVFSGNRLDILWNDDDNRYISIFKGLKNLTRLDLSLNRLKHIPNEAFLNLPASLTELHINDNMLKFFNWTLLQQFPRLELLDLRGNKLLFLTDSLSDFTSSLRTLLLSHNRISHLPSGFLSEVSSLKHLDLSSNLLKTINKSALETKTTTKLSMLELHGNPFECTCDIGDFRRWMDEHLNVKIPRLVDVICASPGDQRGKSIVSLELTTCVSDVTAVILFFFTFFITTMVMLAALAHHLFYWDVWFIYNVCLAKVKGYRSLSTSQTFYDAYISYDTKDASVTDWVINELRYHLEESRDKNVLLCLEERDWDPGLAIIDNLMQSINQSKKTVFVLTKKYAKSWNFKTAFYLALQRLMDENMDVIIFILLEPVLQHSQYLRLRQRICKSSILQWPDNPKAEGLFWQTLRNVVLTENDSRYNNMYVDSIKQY
As to the kind of experiment: hTLR8 agonist reporter assay in HEK293 cells (NFκB-SEAP). The following applies: for EC50: read-out: hTLR8 ED50; for hTLR8 agonist activity, in words: Table 3, FIG. 6. On the procedure:
as §1, §2

For assay [1], the system named is human peripheral blood mononuclear cells (hPBMCs). In words: IFN-α induction in hPBMCs. The following applies: 24 h. On the procedure: (§3) Assays to Measure Cytokine Induction
(§4) Test compounds were evaluated for cytokine induction in human peripheral blood mononuclear cells (hPBMCs).
(§5) Primary human PBMCs were isolated from fresh blood from healthy donors via Ficoll gradient separation and plated at 0.5×10^6 cells/well in 96-well tissue culture plates (RPMI-1640 plus 10% FBS). hPBMCs were maintained with RPMI-1640 culture media (Invitrogen, Grand Island, N.Y.), antibiotics (Invitrogen) and 10% FBS (Sigma).
(§6) Incubation and Assays for IFN-γ, IFN-α and TNF-α
(§7) hPBMCs were stimulated for 24 h with aqueous formulations of test compounds. Culture supernatants were analyzed for TNF-α and IFN-γ induction using multiplex kits (FluoroKine multiplex kits from R&D Systems, Minneapolis, Minn.) and for IFN-α induction using human IFN-α VeriKine ELISA kit (Pestka Biomedical Laboratories, Inc., Piscataway, N.J.).

For assay [2] the test system is unchanged. As to the kind of experiment: TNF-α induction in hPBMCs. To be noted: 24 h. On the procedure: as §3, §4, §5, §6, §7
For assay [3] the test system is unchanged. As to the kind of experiment: IFN-γ induction in hPBMCs. To be noted: 24 h. On the procedure: as §3, §4, §5, §6, §7
Where [4] appears, read: Table 4, FIG. 7, another occasion.
Setting [5] is: Table 4, FIG. 8, another occasion.
The mark [6] stands for this setting: Table 1, FIG. 1, 24 h stimulation, aqueous formulations.
Setting [7] is: Table 2, FIG. 3, another occasion, * = only very low levels of NFKB activation were detected.
Where [8] appears, read: Table 3, FIG. 5, another occasion, * = only very low levels of NFKB activation were detected.
Setting [9] is: Table 1, FIG. 2, 24 h stimulation, aqueous formulations.
Setting [10] is: Table 2, FIG. 4, another occasion, * = only very low levels of NFKB activation were detected.
Where [11] appears, read: Table 3, FIG. 6, another occasion, * = only very low levels of NFKB activation were detected.

Like-named read-outs stand apart in the source and are kept apart here.

For `CCCCCCCCCCCCCCCC(=O)OC[C@H](COCCOCCOCCOP(=O)(O)OCCOc1ccc2c(c1)nc(N)c1nc(CCCC)n(CCO)c12)OC(=O)CCCCCCCCCCCCCCC` [Example 2], the values for the EC50 on human TLR7 (setting [4]) and on human TLR8 (setting [5]) were 6.1 µM and 0.81 µM, respectively.
For `CCCCc1nc2c(N)nc3cc(OCCO)ccc3c2n1CCO` [Comparative Example 3], the “IFN-α induction, in words” value in assay [1] (FIG. 10) was “equipotent at inducing IFN-α and these were more potent than Comparative Example 1 and Comparative Example 2 in this assay at a lower dose”; in assay [1] (FIG. 14, another occasion), “Weaker effects”. The “TNF-α induction, in words” value in assay [2] (FIG. 13) was “potent at inducing TNF-α”; in assay [2] (FIG. 15, another occasion), “effective at inducing TNF-α”. Also, the EC50 at human TLR7 (setting [6]) turned out to be 1.56 µM; at human TLR7 (setting [7]), 2.4 µM; on human TLR7 (setting [8]), 2.2 µM; at human TLR8 (setting [9]), 0.1 µM; at human TLR8 (setting [10]) it was 0.8 µM; on human TLR8 (setting [11]), 1.1 µM. The hTLR7/8 ratio at human TLR7 (Table 1) amounted to 15.5; on human TLR7 (Table 2), 2.9; at human TLR7 (Table 3), 1.9.
In the case of `CCCCc1nc2c(N)nc3cc(OCCOP(=O)(O)OCCOCCOCCO[C@H]4CC[C@@]5(C)C(=CC[C@H]6[C@@H]7CC[C@H]([C@H](C)CCCC(C)C)[C@@]7(C)CC[C@@H]65)C4)ccc3c2n1CCO` [Example 4], the EC50 at human TLR8 (setting [10]) is 31.9 µM.
Regarding `CCCCCCCC/C=C\CCCCCCCC(=O)OC[C@H](COP(=O)(O)OCCOCCOCCOc1ccc2c(c1)nc(N)c1nc(CCCC)n(CCO)c12)OC(=O)CCCCCCC/C=C\CCCCCCCC` [Example 6], the “IFN-α induction, in words” value in assay [1] (FIG. 14, another occasion) is on record as “potent, but less so than Example 1”. Moreover, in assay [2] (FIG. 15, another occasion), the “TNF-α induction, in words” value was “effective but less potent”. On human TLR7, the “hTLR7 agonist activity, in words” value is “very weak agonist of hTLR7”. In addition, the EC50 came out at 8.7 µM on human TLR7 (setting [8]) and 5.8 µM at human TLR8 (setting [11]). On human TLR7 (Table 3), the hTLR7/8 ratio stood at 1.5. On human TLR8, the “hTLR8 agonist activity, in words” value is listed as “reasonably potent agonist of hTLR8”.
Turning to `CCCCCCCC/C=C\CCCCCCCC(=O)OC[C@H](COP(=O)(O)OCCn1c(CCCC)nc2c(N)nc3ccccc3c21)OC(=O)CCCCCCC/C=C\CCCCCCCC` [Comparative Example 2, reference compound], in assay [2] (FIG. 13), the “TNF-α induction, in words” value is recorded as “not significantly effective at inducing TNF-α”. Also, the “IFN-γ induction, in words” value in assay [3] (FIG. 9) is reported as “did not induce any IFN-γ”; in assay [3] (FIG. 11, another occasion), “did not induce IFN-γ”. Moreover, the EC50 at human TLR7 (setting [6]) was determined as 34.6 µM; at human TLR7 (setting [7]) it was 55.4 µM; on human TLR8 (setting [9]), 26 µM; on human TLR8 (setting [10]), 39.2 µM. Besides, the hTLR7/8 ratio on human TLR7 (Table 1) is 1.3; on human TLR7 (Table 2), 1.4.
`CCCCCCCCCCCCCCCC(=O)OC[C@H](COP(=O)(O)OCCOc1ccc2c(c1)nc(N)c1nc(CCCC)n(CCO)c12)OC(=O)CCCCCCCCCCCCCCC` [Example 7]: the EC50 on human TLR7 (setting [4]) was 14.6 µM; on human TLR8 (setting [5]), 3.81 µM.
With `CCCCc1nc2c(N)nc3cc(OCCOCCOCCO)ccc3c2n1CCO` [Comparative Example 5], the “IFN-α induction, in words” value in assay [1] (FIG. 14, another occasion) is “did not induce IFN-α”. Moreover, the “TNF-α induction, in words” value in assay [2] (FIG. 15, another occasion) is “effective but less potent”. Further, at human TLR7, the “hTLR7 agonist activity, in words” value was “quite weak agonist of hTLR7 and hTLR8”. The EC50 turned out to be 13.2 µM on human TLR7 (setting [8]) and 16.3 µM at human TLR8 (setting [11]). Besides, the hTLR7/8 ratio on human TLR7 (Table 3) came to 0.8. Also, the “hTLR8 agonist activity, in words” value on human TLR8 was “quite weak agonist of hTLR7 and hTLR8”.
As to `CCCCCCCC/C=C\CCCCCCCC(=O)OC[C@H](COP(=O)(O)OCCCCOc1ccc2c(c1)nc(N)c1nc(CCCC)n(CCO)c12)OC(=O)CCCCCCC/C=C\CCCCCCCC` [Example 5], the “IFN-α induction, in words” value in assay [1] (FIG. 14, another occasion) is recorded as “potent but at higher dose”. Besides, the “TNF-α induction, in words” value in assay [2] (FIG. 15, another occasion) is listed as “very weak effect”. Besides, at human TLR7, the “hTLR7 agonist activity, in words” value is “very weak agonist of hTLR7 or hTLR8”. The results for the EC50 at human TLR7 (setting [8]) and at human TLR8 (setting [11]) were 10.5 µM and 6.6 µM, respectively. Besides, the hTLR7/8 ratio on human TLR7 (Table 3) is given as 1.6. For the same molecule, at human TLR8, the “hTLR8 agonist activity, in words” value was “very weak agonist of hTLR7 or hTLR8”.
Turning to `CCCCc1nc2c(N)nc3cc(OCCCCO)ccc3c2n1CCO` [Comparative Example 4], in assay [1] (FIG. 14, another occasion), the “IFN-α induction, in words” value is “did not induce IFN-α”. In addition, the “TNF-α induction, in words” value in assay [2] (FIG. 15, another occasion) is “effective at inducing TNF-α”. Also, the “hTLR7 agonist activity, in words” value on human TLR7 is “good agonist of hTLR7 and hTLR8”. For the same molecule, the EC50 amounted to 1.6 µM at human TLR7 (setting [8]) and 2.2 µM at human TLR8 (setting [11]). The hTLR7/8 ratio at human TLR7 (Table 3) worked out at 0.7. The “hTLR8 agonist activity, in words” value on human TLR8 was “good agonist of hTLR7 and hTLR8”.

These data come from patent US11274115B2, “Imidazoquinoline derivatives and their use in therapy” (GLAXOSMITHKLINE BIOLOGICALS SA, priority 2016, dated 2022).
